Series [1] can be described thus: Selectivity index, ratio of TC50 for African green monkey Vero cells to IC50 for Coxsackievirus A16 shzh05-1 infected in African green monkey Vero cells. The format is toxicity. As to conditions: read-out: Selectivity Index.
Series [2] in a line: Antiviral activity against Coxsackievirus B2 (strain Ohio-1) infected in African green monkey Vero cells assessed as reduction in viral-induced cytopathic effect by Reed and Muench analysis. The format is functional. As to conditions: Enterovirus B. (Protection from cytopathic effect is a common read-out in antiviral testing.)
Series [3] is described as follows: Selectivity index, ratio of TC50 for African green monkey Vero cells to IC50 for Coxsackievirus B6 (strain Schmitt) infected in African green monkey Vero cells. The format is toxicity. As to conditions: read-out: Selectivity Index.
A short description of series [4]: Selectivity index, ratio of TC50 for African green monkey Vero cells to IC50 for Coxsackievirus B5 Faulkner infected in African green monkey Vero cells. The class given is toxicity. The note with it: read-out: Selectivity Index.
Another series relates to Coxsackievirus B4. Nature of the series: Antiviral activity against Coxsackievirus B4 J.V.B infected in African green monkey Vero cells assessed as reduction in viral-induced cytopathic effect by Reed and Muench analysis. The class given is functional. The note with it: Enterovirus B.
The next series concerns Coxsackievirus B3. Nature of the series: Antiviral activity against Coxsackievirus B3 (strain Nancy) infected in African green monkey Vero cells assessed as reduction in viral-induced cytopathic effect by Reed and Muench analysis. The format is functional. As to conditions: Enterovirus B.
Series [5] is described as follows: Selectivity index, ratio of TC50 for African green monkey Vero cells to IC50 for Coxsackievirus B1 Conn-5 infected in African green monkey Vero cells. As to conditions: read-out: Selectivity Index. The class given is toxicity.
The subject of the next series is Coxsackievirus A16. Nature of the series: Antiviral activity against Coxsackievirus A16 shzh05-1 infected in African green monkey Vero cells assessed as reduction in viral-induced cytopathic effect by Reed and Muench analysis. The format is functional. As to conditions: Enterovirus A, shzh05-1, Vero.
Series [6] in a line: Selectivity index, ratio of TC50 for African green monkey Vero cells to IC50 for Coxsackievirus B3 (strain Nancy) infected in African green monkey Vero cells. As to conditions: read-out: Selectivity Index. The format is toxicity.
Series [7] can be described thus: Cytotoxicity against African green monkey Vero cells assessed as growth inhibition after 48 hrs. The note with it: chlorocebus sabaeus, read-out: TC50. The format is cell-based.
The subject of the next series is Coxsackievirus B5. Briefly: Antiviral activity against Coxsackievirus B5 Faulkner infected in African green monkey Vero cells assessed as reduction in viral-induced cytopathic effect by Reed and Muench analysis. The format is functional. As to conditions: Enterovirus B.
Series [8] in a line: Selectivity index, ratio of TC50 for African green monkey Vero cells to IC50 for Coxsackievirus B4 J.V.B infected in African green monkey Vero cells. The note with it: read-out: Selectivity Index. The class given is toxicity.
The nature of series [9]: Antiviral activity against Coxsackievirus B6 (strain Schmitt) infected in African green monkey Vero cells assessed as reduction in viral-induced cytopathic effect by Reed and Muench analysis. The class given is functional. The note with it: Enterovirus B.
Series [10] is described as follows: Acute toxicity in po dosed Kunming mouse assessed as effect on body weight and survival administered as single dose measured up to 7 days. The format is organism-based. The note with it: in vivo.
Series [11] in a line: Selectivity index, ratio of TC50 for African green monkey Vero cells to IC50 for Coxsackievirus B2 (strain Ohio-1) infected in African green monkey Vero cells. The class given is toxicity. The note with it: read-out: Selectivity Index.
Another series relates to Coxsackievirus B1. Nature of the series: Antiviral activity against Coxsackievirus B1 Conn-5 infected in African green monkey Vero cells assessed as reduction in viral-induced cytopathic effect by Reed and Muench analysis. The class given is functional. The note with it: Enterovirus B, Conn-5, Vero.

Molecules are shown by their SMILES.

`NC(=O)c1ncn([C@@H]2O[C@H](CO)[C@@H](O)[C@H]2O)n1` [RIBAVIRIN]: the selectivity ratio in series [1] is over 4.3; in [3], over 19.6; in series [4], over 12.3; in [5] it was over 17.2; in series [6] it was 16.8. Moreover, the half-maximal inhibitory concentration (IC50) in [2] is over 40900 µM; in the series on Coxsackievirus B4 it was over 40900 µM; in the series with Coxsackievirus B3, 379 µM; in the series on Coxsackievirus A16 it was 9620 µM. In [7], the CC50 at 48 h lay within 6360 to 40900 µM.
For `CCCC[C@@H]1[C@H]2CCCN3CCC[C@@H](CN1C(=O)c1c(C)noc1C)[C@@H]23`, the IC50 with Coxsackievirus B3 came out at 6.87 µM. Besides, in [6], the selectivity ratio was over 81. Besides, in [7], the CC50 at 48 h was over 556 µM.
As for `CCCC[C@@H]1[C@H]2CCCN3CCC[C@@H](CN1S(=O)(=O)CCN)[C@@H]23`, the 50% inhibitory concentration (IC50) in the series on Coxsackievirus B3 is over 64.7 µM. For the same compound, the CC50 at 48 h in series [7] came to 280 µM.
Regarding `CCCC[C@@H]1[C@H]2CCCN3CCC[C@@H](CN1C(=O)c1cc(OC)c(OC)c(OC)c1)[C@@H]23`, the selectivity ratio in series [1] is 18.7; in [8] it was 23.4; in series [3], 33.7; in series [4] it was 15.6; in series [5] it was 23.4; in [11], 33.7. Moreover, the selectivity ratio in [6] was over 50.6. Also, the IC50 in [2] came to 3.43 µM; with Coxsackievirus B5, 7.41 µM; in [9], 3.43 µM; with Coxsackievirus B4, 4.94 µM; in the series with Coxsackievirus B3, 3.95 µM; with Coxsackievirus A16 it was 6.17 µM. Moreover, the half-maximal inhibitory concentration (IC50) with Coxsackievirus B1 came out at 4.94 µM. Also, the median lethal dose (LD50) at 168 h in series [10] was 327 mg/kg. In addition, in [7], the CC50 at 48 h is 115 to 200 µM.
Consider `CCCC[C@@H]1[C@H]2CCCN3CCC[C@@H](CN1S(=O)(=O)c1sc(N)nc1C)[C@@H]23`, for which the IC50 with Coxsackievirus B3 was over 53.8 µM. Further, the CC50 at 48 h in series [7] turned out to be 233 µM.
In the case of `CCCC[C@@H]1[C@H]2CCCN3CCC[C@@H](CN1Cc1ccc(C(=O)OC)cc1)[C@@H]23`, the 50% inhibitory concentration (IC50) in the series with Coxsackievirus B3 amounted to 6.17 µM. In [6], the selectivity ratio is 15.6. Also, the CC50 at 48 h in [7] was found to be 96.2 µM.
As to `CCCC[C@@H]1[C@H]2CCCN3CCC[C@@H](CN1C(=O)CCC(=O)OC)[C@@H]23`, in the series with Coxsackievirus B3, the IC50 turned out to be 11.1 µM. Moreover, the selectivity ratio in series [6] was over 18.1. Moreover, the CC50 at 48 h in series [7] is over 200 µM.
For `CCCC[C@@H]1[C@H]2CCCN3CCC[C@@H](CN1C(=O)c1ccccc1O)[C@@H]23`, the IC50 with Coxsackievirus B3 is over 62.3 µM. Besides, in series [7], the CC50 at 48 h came to 324 µM.
For `CCCC[C@@H]1[C@H]2CCCN3CCC[C@@H](CN1S(=O)(=O)c1sc(NC(C)=O)nc1C)[C@@H]23`, in the series with Coxsackievirus B3, the IC50 came to 2.06 µM. Moreover, in [6], the selectivity ratio was determined as 46.7. For the same compound, the CC50 at 48 h in series [7] stood at 96.2 µM.
Consider `CCCC[C@@H]1[C@H]2CCCN3CCC[C@@H](CN1C(=O)N1CCN(S(C)(=O)=O)C1=O)[C@@H]23`, for which the half-inhibitory concentration (IC50) in the series on Coxsackievirus B3 is 52.1 µM. Also, the selectivity ratio in series [6] is over 9. In series [7], the CC50 at 48 h was over 469 µM.
As for `CCCC[C@@H]1[C@H]2CCCN3CCC[C@@H](CN1S(=O)(=O)c1cccc(C#N)c1)[C@@H]23`, in the series with Coxsackievirus B3, the half-maximal inhibitory concentration (IC50) was 1.26 µM. The selectivity ratio in series [6] was determined as 146. The CC50 at 48 h in series [7] was found to be 183 µM.
Taken in the same sequence, the figures for `CCCC[C@@H]1[C@H]2CCCN3CCC[C@@H](CN1C(=O)c1ccc(OC)cc1)[C@@H]23` were 6.17 µM, 18.7 and 116 µM.
In the case of `CCCC[C@@H]1[C@H]2CCCN3CCC[C@@H](CN1S(=O)(=O)c1ccccc1C(N)=O)[C@@H]23`, in the series on Coxsackievirus B3, the IC50 is 23.3 µM. In series [6], the selectivity ratio worked out at 11.8. In addition, in [7], the CC50 at 48 h worked out at 276 µM.
The matching figures for `CCCC[C@@H]1[C@H]2CCCN3CCC[C@@H](CN1S(=O)(=O)c1ccsc1C(=O)O)[C@@H]23`: 15 µM, over 13.3 and over 200 µM.
With `CCCC[C@@H]1[C@H]2CCCN3CCC[C@@H](CN1Cc1ccccc1)[C@@H]23`, the IC50 in the series on Coxsackievirus B3 was over 22.2 µM. Moreover, the CC50 at 48 h in series [7] came to 96.2 µM.
Turning to `CCCC[C@@H]1[C@H]2CCCN3CCC[C@@H](CN1S(=O)(=O)c1cccs1)[C@@H]23`, in the series on Coxsackievirus B3, the IC50 is 19.4 µM. Besides, the selectivity ratio in series [6] turned out to be 13. Also, the CC50 at 48 h in [7] came out at 251 µM.
On to `CCCC[C@@H]1[C@H]2CCCN3CCC[C@@H](CN1S(=O)(=O)c1cn(C)cn1)[C@@H]23`, for which the half-inhibitory concentration (IC50) with Coxsackievirus B3 is over 66.7 µM. In addition, in series [7], the CC50 at 48 h was over 200 µM.
Take `CCCC[C@@H]1[C@H]2CCCN3CCC[C@@H](CN1S(=O)(=O)c1ccc4oc(=O)ccc4c1)[C@@H]23`: the IC50 in the series on Coxsackievirus B3 is 3.21 µM. Further, the selectivity ratio in series [6] stood at 56. For the same compound, the CC50 at 48 h in series [7] was determined as 180 µM.
`CCCC[C@@H]1[C@H]2CCCN3CCC[C@@H](CN1C(=O)CC(=O)OC)[C@@H]23`: in the series on Coxsackievirus B3, the IC50 is 46.2 µM. The selectivity ratio in series [6] is over 4.33. In addition, the CC50 at 48 h in series [7] is over 200 µM.
Turning to `CCCC[C@@H]1[C@H]2CCCN3CCC[C@@H](CN1S(=O)(=O)c1cccc(C(N)=O)c1)[C@@H]23`, in the series on Coxsackievirus B3, the IC50 was determined as 7.47 µM. In addition, in [6], the selectivity ratio turned out to be 30.7. The CC50 at 48 h in series [7] is 230 µM.
Regarding `CCCC[C@@H]1[C@H]2CCCN3CCC[C@@H](CN1C(=O)c1ccccc1OC(C)=O)[C@@H]23`, in the series on Coxsackievirus B3, the 50% inhibitory concentration (IC50) is 14.1 µM. In series [6], the selectivity ratio was 17.1. The CC50 at 48 h in series [7] came to 241 µM.
Taken in the same sequence, the figures for `CCCC[C@@H]1[C@H]2CCCN3CCC[C@@H](CN1S(=O)(=O)c1ccc(C(N)=O)cc1)[C@@H]23` were 124 µM, 2.68 and 331 µM.
Turning to `CCCC[C@@H]1[C@H]2CCCN3CCC[C@@H](CN1S(=O)(=O)c1cccnc1)[C@@H]23`, the selectivity ratio in series [1] is over 27; in series [8] it was over 58.3; in series [3], over 58.1; in series [4], over 58.3; in [5], over 99; in series [11], over 59.7. Also, in series [6], the selectivity ratio is over 148. Further, the half-maximal inhibitory concentration (IC50) in [2] is 3.35 µM; with Coxsackievirus B5, 3.43 µM; in [9], 3.43 µM; in the series with Coxsackievirus B4, 3.43 µM; in the series on Coxsackievirus B3, 3.99 µM; in the series on Coxsackievirus A16 it was 7.41 µM. Further, the IC50 in the series on Coxsackievirus B1 was determined as 2.02 µM. The LD50 at 168 h in [10] amounted to 330 mg/kg. Further, the CC50 at 48 h in series [7] is 200 to 592 µM.
As for `CCCC[C@@H]1[C@H]2CCCN3CCC[C@@H](CN1S(=O)(=O)c1ccsc1C(=O)OC)[C@@H]23`, the IC50 in the series on Coxsackievirus B3 amounted to 4.94 µM. Also, the selectivity ratio in [6] is over 40.5. Besides, in series [7], the CC50 at 48 h was over 200 µM.
As for `CCCC[C@@H]1[C@H]2CCCN3CCC[C@@H](CN1C(=O)CCC)[C@@H]23`, the half-inhibitory concentration (IC50) with Coxsackievirus B3 is 32 µM. Besides, the selectivity ratio in series [6] was 6.24. Besides, in [7], the CC50 at 48 h was 200 µM.

One may read the IC50 as the concentration that inhibits the measured activity by half. As a reminder, the LD50 is the dose expected to kill half of the subjects tested.

Source of the values: ChEMBL document CHEMBL4002621, “Novel 12N-substituted matrinanes as potential anti-coxsackievirus agents” (Bioorg Med Chem Lett, 2017).
